Measurements taken from patent publication US9751926B2 (priority 2013, dated 2017).
Non-standard residues stand in square brackets, D forms with d. Residues, ends and D or L forms follow the SMILES beside them. Aib = CC(C)(N)C(=O)O

Biological target: T1, human glucagon receptor (Homo sapiens, UniProt P47871)
T1 construct: expressed in transfected cells
Assay: cAMP response (HTRF) of HEK-293 cells stably expressing human glucagon receptor
Format: cell-based
Details: Table 6; formed cAMP; read-out: EC50 hGLUC R
Procedure: cAMP content of cells was determined using a kit from Cisbio Corp. (cat. no. 62AM4PEC) based on HTRF (Homogenous Time Resolved Fluorescence). For preparation, cells were split into T175 culture flasks and grown overnight to near confluency in medium (DMEM/10% FBS). Medium was then removed and cells washed with PBS lacking calcium and magnesium, followed by proteinase treatment with accutase (Sigma-Aldrich cat. no. A6964). Detached cells were washed and resuspended in assay buffer (1×HBSS; 20 mM HEPES, 0.1% BSA, 2 mM IBMX) and cellular density determined. They were then diluted to 400000 cells/ml and 25 μl-aliquots dispensed into the wells of 96-well plates. For measurement, 25 μl of test compound in assay buffer was added to the wells, followed by incubation for 30 minutes at room temperature.

T1 sequence (P47871 26-477): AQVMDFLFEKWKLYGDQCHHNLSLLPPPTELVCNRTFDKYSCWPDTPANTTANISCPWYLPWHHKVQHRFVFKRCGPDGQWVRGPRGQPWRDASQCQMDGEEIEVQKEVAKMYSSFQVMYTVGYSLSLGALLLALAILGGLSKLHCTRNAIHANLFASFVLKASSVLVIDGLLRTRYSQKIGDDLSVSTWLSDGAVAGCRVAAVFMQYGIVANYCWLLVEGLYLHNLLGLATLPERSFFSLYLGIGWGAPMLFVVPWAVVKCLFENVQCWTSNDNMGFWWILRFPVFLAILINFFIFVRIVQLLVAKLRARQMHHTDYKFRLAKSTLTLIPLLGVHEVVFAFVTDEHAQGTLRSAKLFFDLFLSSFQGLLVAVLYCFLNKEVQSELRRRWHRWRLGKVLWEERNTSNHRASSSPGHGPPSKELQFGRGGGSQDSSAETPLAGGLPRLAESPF

Compound | EC50 [nM]
CC[C@H](C)[C@H](NC(=O)[C@H](CO)NC(=O)[C@H](CC(C)C)NC(=O)[C@H](CC(=O)O)NC(=O)[C@H](CO)NC(=O)[C@@H](NC(=O)[C@H](Cc1ccccc1)NC(=O)[C@@H](NC(=O)CNC(=O)[C@H](CCC(=O)O)NC(=O)C(C)(C)NC(=O)[C@@H](N)Cc1ccc(O)cc1)[C@@H](C)O)[C@@H](C)O)C(=O)N[C@@H](CCC(N)=O)C(=O)N[C@@H](CC[S+](C)[O-])C(=O)N[C@@H](CCC(=O)O)C(=O)N[C@@H](CCCCN)C(=O)N[C@@H](CCC(=O)O)C(=O)N[C@@H](C)C(=O)N[C@H](C(=O)N[C@@H](CCCNC(=N)N)C(=O)N[C@@H](CC(C)C)C(=O)N[C@@H](Cc1ccccc1)C(=O)N[C@H](C(=O)N[C@@H](CCC(=O)O)C(=O)N[C@@H](Cc1c[nH]c2ccccc12)C(=O)N[C@@H](CC(C)C)C(=O)N[C@@H](CCCCN)C(=O)N[C@@H](C)C(=O)NCC(=O)NCC(=O)N1CCC[C@H]1C(=O)N[C@@H](CO)C(=O)N[C@@H](CO)C(=O)NCC(=O)N[C@@H](C)C(=O)N1CCC[C@H]1C(=O)N1CCC[C@H]1C(=O)N1CCC[C@H]1C(=O)N[C@@H](CO)C(N)=O)[C@@H](C)CC)C(C)C (stereo partly drawn) [compound 13] | > 1000
CC[C@H](C)[C@H](NC(=O)[C@H](CO)NC(=O)[C@H](CC(C)C)NC(=O)[C@H](CC(=O)O)NC(=O)[C@H](CO)NC(=O)[C@@H](NC(=O)[C@H](Cc1ccccc1)NC(=O)[C@@H](NC(=O)CNC(=O)[C@H](CCC(=O)O)NC(=O)C(C)(C)NC(=O)[C@@H](N)Cc1ccc(O)cc1)[C@@H](C)O)[C@@H](C)O)C(=O)N[C@@H](CCC(N)=O)C(=O)N[C@@H](CC(C)C)C(=O)N[C@@H](CCC(=O)O)C(=O)N[C@@H](CCC(=O)O)C(=O)N[C@@H](CCC(=O)O)C(=O)N[C@@H](C)C(=O)N[C@H](C(=O)N[C@@H](CCCNC(=N)N)C(=O)N[C@@H](CC(C)C)C(=O)N[C@@H](Cc1ccccc1)C(=O)N[C@H](C(=O)N[C@@H](CCC(=O)O)C(=O)N[C@@H](Cc1c[nH]c2ccccc12)C(=O)N[C@@H](CC(C)C)C(=O)N[C@@H](CCCCN)C(=O)N[C@@H](C)C(=O)NCC(=O)NCC(=O)N1CCC[C@H]1C(=O)N[C@@H](CO)C(=O)N[C@@H](CO)C(=O)NCC(=O)N[C@@H](C)C(=O)N1CCC[C@H]1C(=O)N1CCC[C@H]1C(=O)N1CCC[C@H]1C(=O)N[C@@H](CO)C(N)=O)[C@@H](C)CC)C(C)C [compound 15] (H-Y[Aib]EGTFTSDLSIQLEEEAVRLFIEWLKAGGPSSGAPPPS-NH2) | > 1000
CC[C@H](C)[C@H](NC(=O)[C@H](CO)NC(=O)[C@H](CC(C)C)NC(=O)[C@H](CC(=O)O)NC(=O)[C@H](CO)NC(=O)[C@@H](NC(=O)[C@H](Cc1ccccc1)NC(=O)[C@@H](NC(=O)CNC(=O)[C@H](CCC(=O)O)NC(=O)C(C)(C)NC(=O)[C@@H](N)Cc1ccc(O)cc1)[C@@H](C)O)[C@@H](C)O)C(=O)N[C@@H](CCC(N)=O)C(=O)N[C@@H](CC(C)C)C(=O)N[C@@H](CCC(=O)O)C(=O)N[C@@H](CCC(=O)O)C(=O)N[C@@H](CCC(=O)O)C(=O)N[C@@H](C)C(=O)N[C@H](C(=O)N[C@](C)(CCCCN)C(=O)N[C@@H](CC(C)C)C(=O)N[C@@H](Cc1ccccc1)C(=O)N[C@H](C(=O)N[C@@H](CCC(=O)O)C(=O)N[C@@H](Cc1c[nH]c2ccccc12)C(=O)N[C@@H](CC(C)C)C(=O)N[C@@H](CCCCN)C(=O)N[C@@H](C)C(=O)NCC(=O)NCC(=O)N1CCC[C@H]1C(=O)N[C@@H](CO)C(=O)N[C@@H](CO)C(=O)NCC(=O)N[C@@H](C)C(=O)N1CCC[C@H]1C(=O)N1CCC[C@H]1C(=O)N1CCC[C@H]1C(=O)N[C@@H](CO)C(N)=O)[C@@H](C)CC)C(C)C [compound 18] | > 1000
